molecular target: T1, TAAR1 (Mus musculus, UniProt Q923Y8); assay: Radioligand binding to TAAR1, membranes of stably transfected HEK293 cells, [3H]-rac-2-(1,2,3,4-tetrahydro-1-naphthyl)-2-imidazoline; settings: mouse TAAR1; 4° C., 30 minutes incubation; radioligand at 60 nM
T1 construct: expressed in transfected cells; host or cells: HEK293 cells (ATCC # CRL-1573), stably transfected with pIRESneo2 expression plasmid; membrane preparation
Method: The Expand High Fidelity PCR System (Roche Diagnostics) was used with 1.5 mM Mg^2+ and purified PCR products were cloned into pCR2.1-TOPO cloning vector (Invitrogen) following the instructions of the manufacturer. PCR products were subcloned into the pIRESneo2 vector (BD Clontech, Palo Alto, Calif.), and expression vectors were sequence verified before introduction in cell lines.
For the generation of stably transfected cell lines, HEK293 cells were transfected with the pIRESneo2 expression plasmids containing the TAAR coding sequences (described above) with Lipofectamine 2000 (Invitrogen) according to the instructions of the manufacturer, and 24 hours post transfection, the culture medium was supplemented with 1 mg/ml G418 (Sigma, Buchs, Switzerland). After a culture period of about 10 days, clones were isolated, expanded and tested for responsiveness to trace amines (all compounds purchased from Sigma) with the cAMP Biotrak Enzyme immunoassay (EIA) System (Amersham) following the non-acetylation EIA procedure provided by the manufacturer.
Cells at confluence were rinsed with ice-cold phosphate buffered saline without Ca^2+ and Mg^2+ containing 10 mM EDTA and pelleted by centrifugation at 1000 rpm for 5 minutes at 4° C. The pellet was then washed twice with ice-cold phosphate buffered saline and the cell pellet was frozen immediately by immersion in liquid nitrogen and stored until use at −80° C. The cell pellet was then suspended in 20 ml HEPES-NaOH (20 mM), pH 7.4 containing 10 mM EDTA, and homogenized with a Polytron (PT 3000, Kinematica) at 10,000 rpm for 10 seconds. The homogenate was centrifuged at 48,000×g for 30 minutes at 4° C. and the pellet resuspended in 20 ml HEPES-NaOH (20 mM), pH 7.4 containing 0.1 mM EDTA (buffer A), and homogenized with a Polytron at 10,000 rpm for 10 seconds. The homogenate was then centrifuged at 48,000×g for 30 minutes at 4° C. and the pellet resuspended in 20 ml buffer A, and homogenized with a Polytron at 10,000 rpm for 10 seconds. Protein concentration was determined by the method of Pierce (Rockford, Ill.). The homogenate was then centrifuged at 48,000×g for 10 minutes at 4° C., resuspended in HEPES-NaOH (20 mM), pH 7.0 including MgCl2 (10 mM) and CaCl2 ([…]) (buffer B) at 200 μg protein per ml and homogenized with a Polytron at 10,000 rpm for 10 seconds.
Binding assay was performed at 4° C. in a final volume of 1 ml, and with an incubation time of 30 minutes. […] Non-specific binding was defined as the amount of [^3H]-rac-2-(1,2,3,4-tetrahydro-1-naphthyl)-2-imidazoline bound in the presence of the appropriate unlabelled ligand (10 μM). Competing ligands were tested in a wide range of concentrations (10 pM-30 μM). […] Each experiment was performed in duplicate. All incubations were terminated by rapid filtration through UniFilter-96 plates (Packard Instrument Company) and glass filter GF/C) pre-soaked for at least 2 hours in polyethylenimine 0.3%, and using a Filtermate 96 Cell Harvester (Packard Instrument Company). The tubes and filters were then washed 3 times with 1 ml aliquots of cold buffer B. Filters were not dried and soaked in Ultima gold (45 μl/well, Packard Instrument Company) and bound radioactivity was counted by a TopCount Microplate Scintillation Counter (Packard Instrument Company).

T1 sequence (Q923Y8 whole entry): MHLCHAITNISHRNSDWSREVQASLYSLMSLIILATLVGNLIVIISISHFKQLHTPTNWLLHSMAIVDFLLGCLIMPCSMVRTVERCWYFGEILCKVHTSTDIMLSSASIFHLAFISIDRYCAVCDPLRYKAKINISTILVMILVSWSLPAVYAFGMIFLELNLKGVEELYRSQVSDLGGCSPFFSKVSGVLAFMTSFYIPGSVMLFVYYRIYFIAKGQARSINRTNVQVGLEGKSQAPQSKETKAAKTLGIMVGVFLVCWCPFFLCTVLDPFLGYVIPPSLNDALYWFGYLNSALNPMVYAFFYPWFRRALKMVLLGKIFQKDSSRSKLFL

Row | SMILES | Ki [µM]
1 | COc1ccc2c(c1)CCN2Cc1cnc[nH]1 [Example 26, 1-(1H-Imidazol-4-ylmethyl)-5-methoxy-2,3-dihydro-1H-indole] | 0.0834
2 | Cc1ccc2c(c1)CCN2Cc1cnc[nH]1 [Example 29, 1-(1H-Imidazol-4-ylmethyl)-5-methyl-2,3-dihydro-1H-indole] | 0.0115
3 | Fc1cc2c(cc1F)N(Cc1cnc[nH]1)CC2 [Example 38, 5,6-Difluoro-1-(1H-imidazol-4-ylmethyl)-2,3-dihydro-1H-indole] | 0.0144
4 | Clc1ccc2c(c1)CCN2Cc1cnc[nH]1 [Example 14, 5-Chloro-1-(1H-imidazol-4-ylmethyl)-2,3-dihydro-1H-indole] | 0.0102
5 | c1ccc2c(c1)OCCN2Cc1cnc[nH]1 [Example 18, 4-(1H-Imidazol-4-ylmethyl)-3,4-dihydro-2H-benzo[1,4]oxazine] | 0.0578
6 | CC1Cc2ccccc2N1Cc1cnc[nH]1 (racemic) [Example 1, (R,S)-1-(1H-Imidazol-4-ylmethyl)-2-methyl-2,3-dihydro-1H-indole] | 0.0688
7 | Cc1cccc2c1N(Cc1cnc[nH]1)CC2 [Example 40, 1-(1H-Imidazol-4-ylmethyl)-7-methyl-2,3-dihydro-1H-indole] | 0.0405
8 | c1ccc2c(c1)CCCCN2Cc1cnc[nH]1 [Example 44, 1-(3H-Imidazol-4-ylmethyl)-2,3,4,5-tetrahydro-1H-benzo[b]azepine] | 0.0151
9 | Brc1ccc2c(c1)CCCN2Cc1cnc[nH]1 [Example 33, 6-Bromo-1-(H-imidazol-4-ylmethyl)-1,2,3,4-tetrahydro-quinoline] | 0.003
10 | Fc1ccc2c(c1)CCN2Cc1cnc[nH]1 [Example 36, 5-Fluoro-1-(1H-imidazol-4-ylmethyl)-2,3-dihydro-1H-indole] | 0.0277
11 | CC1Cc2cc(F)ccc2N1Cc1cnc[nH]1 (racemic) [Example 39, (R,S)-5-Fluoro-1-(1H-imidazol-4-ylmethyl)-2-methyl-2,3-dihydro-1H-indole] | 0.0493
12 | CCc1cccc2c1N(Cc1cnc[nH]1)CC2 [Example 23, 7-Ethyl-1-(1H-imidazol-4-ylmethyl)-2,3-dihydro-1H-indole] | 0.0042
13 | Cc1ccc2c(c1)N(Cc1cnc[nH]1)CC2 [Example 34, 1-(1H-Imidazol-4-ylmethyl)-6-methyl-2,3-dihydro-1H-indole] | 0.0133
14 | CC1COc2ccccc2N1Cc1cnc[nH]1 (single isomer, unassigned; (-)) [Example 49, (−)-4-(1H-Imidazol-4-ylmethyl)-3-methyl-3,4-dihydro-2H-benzo[1,4]oxazine] | 0.0573
15 | Clc1cccc2c1N(Cc1cnc[nH]1)CC2 [Example 32, 7-Chloro-1-(H-imidazol-4-ylmethyl)-2,3-dihydro-1H-indole] | 0.0403
16 | c1ccc2c(c1)CCCN2Cc1cnc[nH]1 [Example 7, 1-(3H-Imidazol-4-ylmethyl)-1,2,3,4-tetrahydro-quinoline] | 0.0264
17 | CC1CN(Cc2cnc[nH]2)c2ccccc21 (racemic) [Example 35, (R,S)-1-(1H-Imidazol-4-ylmethyl)-3-methyl-2,3-dihydro-1H-indole] | 0.0323

Row | SMILES | Ki [µM]
18 | CC1CCc2ccccc2N1Cc1cnc[nH]1 (single isomer, unassigned; (-)) [Example 47, (−)-1-(1H-Imidazol-4-ylmethyl)-2-methyl-1,2,3,4-tetrahydro-quinoline] | 0.0872
19 | COc1cccc2c1CCN2Cc1c[nH]cn1 [Example 31, 1-(1H-Imidazol-4-ylmethyl)-4-methoxy-2,3-dihydro-1H-indole] | 0.0243
20 | Cc1cccc2c1CCN2Cc1cnc[nH]1 [Example 41, 1-(1H-Imidazol-4-ylmethyl)-4-methyl-2,3-dihydro-1H-indole] | 0.0104
21 | Fc1ccc2c(c1)N(Cc1cnc[nH]1)CC2 [Example 37, 6-Fluoro-1-(1H-imidazol-4-ylmethyl)-2,3-dihydro-1H-indole] | 0.0106
22 | Brc1ccc2c(c1)CCN2Cc1cnc[nH]1 [Example 4, 5-Bromo-1-(1H-imidazol-4-ylmethyl)-2,3-dihydro-1H-indole] | 0.0091
23 | CC1Cc2cc(Cl)ccc2N1Cc1cnc[nH]1 (racemic) [Example 16, (R,S)-5-Chloro-1-(1H-imidazol-4-ylmethyl)-2-methyl-2,3-dihydro-1H-indole] | 0.0345
24 | c1ccc(COc2ccc3c(c2)N(Cc2cnc[nH]2)CCC3)cc1 [Example 57, 7-Benzyloxy-1-(1H-imidazol-4-ylmethyl)-1,2,3,4-tetrahydro-quinoline] | 0.0702
25 | CC1CCc2ccccc2N1Cc1cnc[nH]1 (racemic) [Example 3, (R,S)-1-(1H-Imidazol-4-ylmethyl)-2-methyl-1,2,3,4-tetrahydro-quinoline] | 0.0258
26 | COc1ccc2c(c1)CCCCN2Cc1cnc[nH]1 [Example 43, 1-(3H-Imidazol-4-ylmethyl)-7-methoxy-2,3,4,5-tetrahydro-1H-benzo[b]azepine] | 0.0538
27 | c1ccc(COc2cccc3c2CCCN3Cc2cnc[nH]2)cc1 [Example 55, 5-Benzyloxy-1-(1H-imidazol-4-ylmethyl)-1,2,3,4-tetrahydro-quinoline] | 0.0046
28 | COc1cccc2c1N(Cc1cnc[nH]1)CC2 [Example 28, 1-(1H-Imidazol-4-ylmethyl)-7-methoxy-2,3-dihydro-1H-indole] | 0.0409
29 | c1ccc(Oc2cccc3c2CCCN3Cc2c[nH]cn2)cc1 [Example 61, 1-(1H-Imidazol-4-ylmethyl)-5-phenoxy-1,2,3,4-tetrahydro-quinoline] | 0.0027
30 | Clc1cccc2c1CCN2Cc1cnc[nH]1 [Example 25, 4-Chloro-1-(1H-imidazol-4-ylmethyl)-2,3-dihydro-1H-indole] | 0.0016
31 | CC1COc2ccccc2N1Cc1cnc[nH]1 (racemic) [Example 45, (R,S)-4-(1H-Imidazol-4-ylmethyl)-3-methyl-3,4-dihydro-2H-benzo[1,4]oxazine] | 0.017
32 | COc1ccc2c(c1)N(Cc1cnc[nH]1)CC2 [Example 27, 1-(1H-Imidazol-4-ylmethyl)-6-methoxy-2,3-dihydro-1H-indole] | 0.0389
33 | CC1CCc2cc(F)ccc2N1Cc1cnc[nH]1 (racemic) [Example 6, (R,S)-6-Fluoro-1-(1H-imidazol-4-ylmethyl)-2-methyl-1,2,3,4-tetrahydro-quinoline] | 0.0598

same assay, conditions: radioligand of the TAAR1 binding assay; species not stated; read-out: calculated Kd value of the radioligand

Row | SMILES | Kd [nM]
34 | c1ccc2c(c1)CCCC2C1=NCCN1 (racemic) [[^3H]-rac-2-(1,2,3,4-tetrahydro-1-naphthyl)-2-imidazoline, reference compound] | 60

Source: patent publication US7858652B2, “Substituted 4-imidazoles” (Hoffmann-La Roche Inc., priority 2006, dated 2010)
